Experimental data taken from the NIST ThermoML archive (doi:10.1016/j.fluid.2015.09.010).

Conditions: Gas, single sinker densimeter

CCC [propane]
Conditions	mass density [kg/m3]
258.14 K, 101.23 kPa	2.1368
258.15 K, 201.63 kPa	4.3743
258.15 K, 276.61 kPa	6.1388
263.16 K, 209.67 kPa	4.4546
263.17 K, 101.09 kPa	2.0885
263.17 K, 314.8 kPa	6.8907
268.14 K, 251.5 kPa	5.2792
268.15 K, 101.59 kPa	2.0567
268.16 K, 297.13 kPa	6.3169
268.16 K, 386.83 kPa	8.4369
273.14 K, 250.22 kPa	5.1361
273.15 K, 101.64 kPa	2.0179
273.15 K, 101.65 kPa	2.0177
273.15 K, 462.55 kPa	10.0438
278.14 K, 283.52 kPa	5.7427
278.14 K, 542.76 kPa	11.76
278.15 K, 105.47 kPa	2.0544
283.13 K, 101.63 kPa	1.942
283.13 K, 284.93 kPa	5.6533
283.13 K, 452.56 kPa	9.3303
283.13 K, 615.83 kPa	13.2515
288.21 K, 421.87 kPa	8.433
288.21 K, 538.6 kPa	11.0628
288.22 K, 101.88 kPa	1.9105
288.22 K, 217.75 kPa	4.1713
288.22 K, 322.62 kPa	6.3129
288.22 K, 653.34 kPa	13.8134
293.1 K, 803.62 kPa	17.2181
293.12 K, 106.57 kPa	1.9628
293.12 K, 340.88 kPa	6.5552

F/C=C/C(F)(F)F [trans-1,3,3,3-tetrafluoropropene]
Conditions	mass density [kg/m3]
263.17 K, 142.52 kPa	7.8479
263.18 K, 101.66 kPa	5.5042
263.18 K, 124.43 kPa	6.8014
268.16 K, 105.74 kPa	5.6056
268.16 K, 137.08 kPa	7.3536
268.17 K, 168.48 kPa	9.1497
273.11 K, 102.98 kPa	5.3503
273.12 K, 145.02 kPa	7.6483
273.12 K, 198.33 kPa	10.6692
278.14 K, 103.54 kPa	5.2727
278.14 K, 152.59 kPa	7.8948
278.14 K, 200.35 kPa	10.5385
278.14 K, 249.93 kPa	13.3894
283.14 K, 106.17 kPa	5.3014
283.15 K, 201.69 kPa	10.3769
283.15 K, 290.13 kPa	15.3909
283.15 K, 303.37 kPa	16.1704
288.11 K, 185.99 kPa	9.3221
288.12 K, 261.69 kPa	13.4297
288.12 K, 338.42 kPa	17.8195
288.13 K, 107.78 kPa	5.2812
288.13 K, 356.37 kPa	18.8808
293.16 K, 106.73 kPa	5.1257
293.16 K, 210.6 kPa	10.407
293.16 K, 302.68 kPa	15.3725
293.16 K, 408.92 kPa	21.5052
